What was measured:
[1] = test system: HBV DNA of HepG2-NTCP cells; assay: In vitro anti-HBV activity in HepG2-NTCP cells: HBV DNA in culture supernatant by qPCR; format: cell-based
Description: (§1) On day 0, HepG2-NTCP cells were plated into 48-well plates (7.5×10^4 cells/well). On day 1, change to medium containing 2% DMSO.
(§2) On day 2, the cells were pretreated by adding compounds for 1 hour, and then HepG2-NTCP cells were infected by the addition of […] (compounds were added simultaneously). The test compound was diluted to three concentrations for single treatment, one concentration for combined treatment. Testing in duplicate. The control compound is ETV. See Table 2 for compound concentrations.
(§3) On days 3, 5 and 7, the medium was replaced with fresh medium containing compounds.
(§4) On the ninth day, the supernatant was collected, which was then detected by ELISA for levels of HBeAg and HbsAg, and by qPCR for level of HBV DNA. Meanwhile, detecting cell viability by CellTiter-Glo. Collecting cells for cryopreservation (for spare).
1) Detecting the level of HBV DNA in cell culture supernatant by qPCR
According to the instructions of QIAamp 96 DNA Blood Kit, extracting DNA from cell culture supernatant. The level of HBV DNA was detected by qPCR with HBV-specific primers. PCR reaction: 95° C., 10 min; 95° C., 15 sec, 60° C., 1 min, 40 cycles.
Inhibition rate of HBV DNA (%)=(1-HBV copy number of sample compound group/HBV copy number of DMSO group)×100%

[2] = test system: HBsAg of HepG2-NTCP cells; assay: In vitro anti-HBV activity in HepG2-NTCP cells: HBsAg in culture supernatant by ELISA; format: cell-based
Description: as §1, §2, §3, §4
(§5) 2) Detecting the levels of HBeAg and HBsAg in cell culture supernatant by ELISA. The test was performed in accordance with the instructions of the kit, and was briefly described as follows:
(§6) Taking respective 50 μl of standard, sample and control compound, and adding to the detection plate, then adding 50 μl of enzyme conjugate to each well, incubating at 37° C. for 60 minutes, washing the plate with washing solution, blotting dry, then adding 50 μl of premixed luminescent substrate, and incubating at room temperature in the dark for 10 minutes, and finally measuring luminescence values by a microplate reader.
(§7) Inhibition rate of Hbe/sAg (%)=(1-HBe/sAg level of sample compound/HBe/sAg level of DMSO control group)×100%

[3] = test system: HBeAg in HepG2-NTCP cells; assay: microbe, parasite or virus in culture; format: cell-based, HBV
Description: as §1, §2, §3, §4, §5, §6, §7

HBeAg and HBsAg = conditions: as reported in the literature; cited from earlier work
hepatitis B virus (HBV) = conditions: compared with TDF; cited from earlier work
[4] = compared with TDF; cited from earlier work
HepG2-NTCP cells = assay: Cell viability assay by CellTiter-Glo; format: cell-based; conditions: different concentrations, FIG. 7
Description: as §4
3) Cell Viability Assay by CellTiter-Glo Cell
The cell viability was determined according to the instructions of the CellTiter-Glo kit. The assay is briefly described as follows: Collecting the cell culture supernatant, adding CellTiter-Glo (1:1 dilution of medium) to each well, incubating at room temperature for 10 minutes, and measuring luminescence values with a microplate reader.

AAV-HBV mouse models = assay: In vivo experiments in AAV-HBV mouse models: plasma HBV DNA, HBsAg, HBeAg; conditions: AAV-HBV mice, 60mpk by gavage once a day, 90-day period of administration
Description: Experimental method: AAV-HBV mouse models were administered by gavage, once a day; the compound group (G10 HD042, i.e., celecoxib): the dose of celecoxib was 60mpk; and the blank group (G1 vehicle control group): 10% DMSO+40% PEG400+5% Tween 80+45% Saline (V/V) solution.
During the 90-day period of administration, blood was collected on the 6th, 13th, 20th, 27th, 34th, 41st, 48th, 55th, 62nd, 69th, […], 83rd, and 90th days, respectively, and the plasma levels of HBV DNA, HBsAg, HBeAg and anti-HBs were tested with the results shown in FIGS. 4 to 5.

[5] = Hepatitis B virus, 216 h, read-out: HBsAg inhibition rate
[6] = Hepatitis B virus, 216 h, read-out: HBeAg inhibition rate
[7] = repeated parallel experiments, FIG. 6

## C=C1C(CO)C(O)CC1n1cnc2c(=O)nc(N)[nH]c21 [ETV, 2-amino-1,9-dihydro-9-[(1S,3R,4S)-4-hydroxy-3-(hydroxymethyl)-2-methylenecyclopentane]-6H-purin-6-one]
[1]; Hepatitis B virus, 216 h, 0.1 nM ETV, HepG2-NTCP cells, supernatant day 9, read-out: HBV DNA inhibition rate
  inhibition at 0.0001 µM: 44.7%
[2]; [5]
  inhibition at 0.0001 µM: 1.22%
[3]; [6]
  inhibition at 0.0001 µM: -1.35%
HBeAg and HBsAg
  effect on reducing HBeAg and HBsAg: little effect

## CC(C)OC(=O)[C@H](C)N[P@](=O)(CO[C@H](C)Cn1cnc2c(N)ncnc21)Oc1ccccc1 [Tenofovir alafenamide, Tenofovir Alafenamide]
Hepatitis B virus (HBV)
  antiviral activity relative to tenofovir disoproxil TDF: 10 times
[4]
  half-life relative to tenofovir disoproxil TDF: 225 times
  stability in plasma relative to tenofovir disoproxil TDF: 200 times

## Cc1ccc(-c2cc(C(F)(F)F)nn2-c2ccc(S(N)(=O)=O)cc2)cc1 [compound of formula 1, celecoxib]
[1]; Hepatitis B virus, 216 h, 1 μM compound of formula 1, HepG2-NTCP cells, supernatant day 9, read-out: HBV DNA inhibition rate
  inhibition at 1 µM: 7.59%
[1]; Hepatitis B virus, 216 h, 10 μM compound of formula 1, HepG2-NTCP cells, supernatant day 9, read-out: HBV DNA inhibition rate
  inhibition at 10 µM: 49.2%
[1]; Hepatitis B virus, 216 h, 20 μM compound of formula 1, HepG2-NTCP cells, supernatant day 9, read-out: HBV DNA inhibition rate
  inhibition at 20 µM: 73%
[1]; [7]
  inhibitory effect on HBV DNA, repeated cell experiments: significant dose-dependent manner
[2]; [5]
  inhibition at 1 µM: 21.5%
  inhibition at 10 µM: -7.65%
  inhibition at 20 µM: 46.1%
[2]; [7]
  inhibitory effect on HBsAg, repeated cell experiments: significant dose-dependent manner
[3]; [6]
  inhibition at 1 µM: 18%
  inhibition at 10 µM: 50.4%
  inhibition at 20 µM: 78.1%
[3]; [7]
  inhibitory effect on HBeAg, repeated cell experiments: significant dose-dependent manner
HepG2-NTCP cells
  cytotoxicity on HepG2-NTCP cells: an effect on the virus rather than cytotoxicity
AAV-HBV mouse models
  reduction of plasma level of HBV DNA: 0.72 Log 10 copy/mL
  reduction of plasma level of HBeAg: 0.34 Log 10 PEIU/mL
  reduction of plasma level of HBsAg: 0.76 Log 10 IU/mL

From US20230158000A1, “PHARMACEUTICAL COMPOSITION FOR TREATING OR PREVENTING VIRAL HEPATITIS AND THE USE THEREOF” (Holy Haid Lab Corp, priority 2020, published 2023)
